Experiments:
IDO1 in HeLa cells = IDO1 in HeLa cells (Homo sapiens (Human), UniProt P14902); assay: HeLa cell based IDO1 assay (IFNγ-induced, KYN in supernatant)
Method: HeLa cells were obtained from ATCC and maintained in DMEM supplemented with sodium bicarbonate (2.1 g/L), HEPES (4.1 g/L), L-glutamine (2 mM), non-essential amino acid (84 mg/L) and fetal bovine serum (10% FBS) and maintained at 95% humidity and 5% CO2 in a 37° C. incubator. Unless otherwise stated, all materials were procured from Sigma. Upon incubation with gamma-interferon (IFNγ ), HeLa cells express IDO1, which catalyzes the formation of N-formyl kynurenine from tryptophan present in growth medium. The assay was performed as follows:
Cells were plated in medium (300 μL) at a density of 0.1 million per well of a 48 well plate and hIDO1 was induced by overnight treatment with IFNγ (50 ng/mL) (Peprotech, USA). The following day, cells were washed to remove IFNγ and were incubated with specific concentrations of test compounds (typically 10 μM to 1 nM, final volume 300 μL) in Hanks Balanced Salt Solution (HBSS) containing 80 μM L-tryptophan. Following incubation, supernatant (150 μL) was transferred to a 96 well plate into which 30%TCA (304) was added and the contents further incubated at 65° C. for 15 min to fully convert N-formylkynurenine to kynurenine. The reaction mixture was then centrifuged to remove sediments and the KYN in the supernatant was estimated by UV-visible absorption spectroscopy at 360 nm using a Waters HPLC system fitted with a C-18 column. (Xiangdong Liu et al. Blood 2010, Vol-117, 3520-30; Sono described above).
(§1) Percent inhibition at each concentration of test compounds was determined by estimating the decrease in KYN with reference to the reaction control with 1% DMSO vehicle. Data were analyzed using nonlinear regression to generate IC50 values using Graph Pad Prism® 5.

[1] = target: Human TDO (hTDO)-transfected CHO-K1 cells (Homo sapiens (Human), UniProt P48775); assay: CHO-K1 cell based TDO assay; conditions: hTDO cellular assay
Sequence of Human TDO (hTDO)-transfected CHO-K1 cells (P48775 whole entry): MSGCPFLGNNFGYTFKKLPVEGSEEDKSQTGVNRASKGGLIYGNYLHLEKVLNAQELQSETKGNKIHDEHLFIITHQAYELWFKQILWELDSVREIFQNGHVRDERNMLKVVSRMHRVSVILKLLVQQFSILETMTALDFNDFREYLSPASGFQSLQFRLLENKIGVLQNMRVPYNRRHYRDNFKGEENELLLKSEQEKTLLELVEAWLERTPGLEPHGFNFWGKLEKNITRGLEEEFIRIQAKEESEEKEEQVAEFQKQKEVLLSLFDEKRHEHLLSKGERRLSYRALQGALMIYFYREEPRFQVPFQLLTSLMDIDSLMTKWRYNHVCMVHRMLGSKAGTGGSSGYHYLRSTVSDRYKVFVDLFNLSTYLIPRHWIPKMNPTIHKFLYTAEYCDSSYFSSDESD
Method: Human TDO (hTDO)-transfected CHO-K1 cells were used to identify test compounds that inhibit TDO activity and reduce Kynurenine production. CHO-K1 cells (ATCC) were cultured in DMEM supplemented with sodium bicarbonate (2.1 g/L), HEPES (4.1 g/L), L-glutamine (2 mM), non-essential amino acid (84 mg/L) and fetal bovine serum (10%) and maintained at 95% humidity and 5% CO2 in a 37° C. incubator. The TDO gene (TDO2) (Accession number NM_005651.1) was purchased from Origene (USA) and stably expressed in CHO-Kl cells using the expression vector pcDNA4/Myc-HisB Hygro (Life Technologies, USA). TDO-expressing clones were identified based on the kynurenine production by the cells. Expanded clones were used for assay as described below. Unless otherwise stated, all materials were procured from Sigma.
hTDO transfected CHO-K1 cells (0.05 million/well) were seeded in a 96-well plate and maintained overnight in DMEM containing 10% FBS (200 μL) at 95% humidity and 5% CO2 in a 37° C. incubator. The following day, cells were washed and incubated with test compounds (typically 31 μM to 10 nM, final volume 150 μL) in Hanks Balanced Salt Solution (HBSS) containing 80 μM L-tryptophan for 2 hours. Supernatant (150 μL) from the cells was treated with 30% TCA ([…]) to precipitate proteins. Supernatants were further incubated at 65° C. for 15 min to convert N-formylkynurenine to kynurenine. KYN in the supernatant was measured by LC/MS/MS using an API4000 mass spectrometer (Applied Biosystems) coupled to a Shimadzu Prominence LC system fitted with a C18 column.
Percent inhibition of the test compounds was determined by measuring the decrease in KYN as compared to the reaction control (DMSO vehicle). IC50 values were calculated using Graph Pad Prism® 5 as described above.

[2] = target: Human indoleamine 2,3-dioxygenase1 (hIDO1) (Homo sapiens (Human), UniProt P14902); assay: In-vitro IDO1 enzyme assay (conversion of L-tryptophan to KYN); type: biochemical; conditions: read-out: IC50 (IDO1) Enz
Sequence of Human indoleamine 2,3-dioxygenase1 (hIDO1) (P14902 whole entry): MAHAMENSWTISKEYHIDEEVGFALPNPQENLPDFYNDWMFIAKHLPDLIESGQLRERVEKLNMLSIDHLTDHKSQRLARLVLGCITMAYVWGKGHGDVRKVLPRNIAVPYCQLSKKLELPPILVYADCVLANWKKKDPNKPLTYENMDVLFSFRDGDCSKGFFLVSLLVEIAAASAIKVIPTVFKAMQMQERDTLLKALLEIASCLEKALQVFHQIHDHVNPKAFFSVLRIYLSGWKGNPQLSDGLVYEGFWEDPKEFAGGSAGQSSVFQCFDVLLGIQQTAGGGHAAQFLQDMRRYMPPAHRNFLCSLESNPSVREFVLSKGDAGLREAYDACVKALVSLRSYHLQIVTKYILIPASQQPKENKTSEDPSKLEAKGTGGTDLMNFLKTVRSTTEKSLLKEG
From the text: Human indoleamine 2,3-dioxygenasel (hIDO1) catalyzes the oxidative cleavage of the pyrrole ring of the indole nucleus of tryptophan to yield N-formylkynurenine which can be converted to kynurenine (KYN) by deformylation. hIDO1 with an N-terminal His tag, expressed and purified from E. coli cells was procured from either Enzo LifeScienccs, NY, USA). Unless otherwise stated, all materials were procured from Sigma Aldrich, Mo., USA.
The assay monitoring the conversion of L-tryptophan to KYN was carried out as follows. hIDO1 (10 nM) was incubated with tryptophan (30 μM) in the presence of ascorbic acid (20 mM), methylene blue (10 μM) and catalase (100 μg/mL) in potassium phosphate buffer (50 mM; pH 6.5) at 37C for 30 min. The reaction was terminated with 30% trichloroacetic acid (TCA) and further incubated at 65C for 15 min to fully convert N-formylkynurenine to KYN. The reaction mixture was then centrifuged to remove sediments and the KYN in the supernatant was estimated by UV-visible absorption spectroscopy at 360 nm using a Waters HPLC system fitted with a C-18 column or by LC/MS/MS. See, Sono, 1980, J. Biol. Chem., 255:1339-1345, which is herein incorporated by reference.
as §1

Sequence of IDO1 in HeLa cells (P14902 whole entry): as above

Molecule | IC50 (IDO1 in HeLa cells) [nM] | IC50 [1] [nM] | IC50 [2] [nM]
2-Amino-3-((3-chloro-4-fluorophenyl)amino)furo[2,3-c]pyridine-7-carbonitrile [Compound 106] | > 1000 | 500 to 2000 | > 1000
Nc1oc2cnccc2c1Nc1ccccc1 [Compound 3, N^3-Phenylfuro[2,3-c]pyridine-2,3-diamine] | < 200 | < 500 | 200 to 1000
Nc1oc2cnccc2c1Nc1ccccc1Cl [Compound 4, N^3-(2-Chlorophenyl)furo[2,3-c]pyridine-2,3-diamine] | < 200 | > 2000 | > 1000
Nc1oc2cnccc2c1Nc1ccc(F)cc1 [Compound 5, N^3-(4-Fluorophenyl)furo[2,3-c]pyridine-2,3-diamine] | < 200 | 500 to 2000 | 200 to 1000
Nc1oc2cnccc2c1Nc1cccc(Cl)c1 [Compound 8, N^3-(3-Chlorophenyl)furo[2,3-c]pyridine-2,3-diamine] | < 200 | 500 to 2000 | 200 to 1000
COc1cc(Nc2c(N)oc3cnccc23)ccc1Cl [Compound 9, N^3-(4-Chloro-3-methoxyphenyl)furo[2,3-c]pyridine-2,3-diamine] | 200 to 1000 | 500 to 2000 | > 1000
Nc1oc2cnccc2c1Nc1ccc(F)cc1Br [Compound 10, N^3-(2-Bromo-4-fluorophenyl)furo[2,3-c]pyridine-2,3-diamine] | 200 to 1000 | > 2000 | > 1000
Cc1ccc(Nc2c(N)oc3cnccc23)cc1C [Compound 13, N^3-(3,4-Dimethylphenyl)furo[2,3-c]pyridine-2,3-diamine] | < 200 | 500 to 2000 | 200 to 1000
Cc1cc(C)cc(Nc2c(N)oc3cnccc23)c1 [Compound 14, N^3-(3,5-Dimethylphenyl)furo[2,3-c]pyridine-2,3-diamine] | < 200 | 500 to 2000 | 200 to 1000
Nc1oc2cnccc2c1Nc1ccc(Cl)c(Cl)c1 [Compound 15, N^3-(3,4-Dichlorophenyl)furo[2,3-c]pyridine-2,3-diamine] | 200 to 1000 | 500 to 2000 | 200 to 1000
Nc1oc2cnccc2c1Nc1ccc(Br)cc1 [Compound 16, N^3-(4-Bromophenyl)furo[2,3-c]pyridine-2,3-diamine] | 200 to 1000 | 500 to 2000 | > 1000
CCc1cccc(Nc2c(N)oc3cnccc23)c1 [Compound 19, N^3-(3-Ethylphenyl)furo[2,3-c]pyridine-2,3-diamine] | 200 to 1000 | > 2000 | 200 to 1000
Nc1oc2cnccc2c1Nc1cccc(I)c1 [Compound 20, N^3-(3-Iodophenyl)furo[2,3-c]pyridine-2,3-diamine] | < 200 | 500 to 2000 | < 200
Cc1ccc(Nc2c(N)oc3cnccc23)cc1Br [Compound 21, N^3-(3-Bromo-4-methylphenyl)furo[2,3-c]pyridine-2,3-diamine] | < 200 | 500 to 2000 | 200 to 1000
Nc1oc2cnccc2c1Nc1cc(F)c(F)c(Br)c1 [Compound 22, N^3-(3-Bromo-4,5-difluorophenyl)furo[2,3-c]pyridine-2,3-diamine] | 200 to 1000 | > 2000 | > 1000
COc1ccc(Cl)cc1Nc1c(N)oc2cnccc12 [Compound 25, N^3-(5-Chloro-2-methoxyphenyl)furo[2,3-c]pyridine-2,3-diamine] | 200 to 1000 | 500 to 2000 | > 1000
Nc1oc2cnccc2c1Nc1cccc(C(F)(F)F)c1 [Compound 26, N^3-(3-(Trifluoromethyl)phenyl)furo[2,3-c]pyridine-2,3-diamine] | < 200 | 500 to 2000 | < 200
Cc1cc(Nc2c(N)oc3cnccc23)ccc1F [Compound 27, N^3-(4-Fluoro-3-methylphenyl)furo[2,3-c]pyridine-2,3-diamine] | < 200 | 500 to 2000 | < 200
Cc1ccc(Nc2c(N)oc3cnccc23)cc1Cl [Compound 33, N^3-(3-Chloro-4-methylphenyl)furo[2,3-c]pyridine-2,3-diamine] | < 200 | 500 to 2000 | < 200
Nc1oc2cnccc2c1Nc1ccc2c(c1)OCO2 [Compound 35, N^3-(Benzo[d][1,3]dioxol-5-yl)furo[2,3-c]pyridine-2,3-diamine] | < 200 | 500 to 2000 | 200 to 1000
Cc1cccc(Nc2c(N)oc3cnccc23)c1 [Compound 48, N^3-(m-tolyl)Furo[2,3-c]pyridine-2,3-diamine] | < 200 | – | < 200
Nc1oc2c(Cc3ccccc3)nccc2c1Nc1ccc(F)c(Cl)c1 [Compound 86, 7-Benzyl-N^3-(3-chloro-4-fluorophenyl)furo[2,3-c]pyridine-2,3-diamine] | < 200 | – | < 200
Nc1oc2c(-c3ccc(Cl)cc3)nccc2c1Nc1ccc(F)c(Cl)c1 [Compound 91, N^3-(3-Chloro-4-fluorophenyl)-7-(4-chlorophenyl)furo[2,3-c]pyridine-2,3-diamine] | < 200 | – | < 200
C#Cc1cccc(Nc2c(N)oc3c(-c4ccccc4)nccc23)c1 [Compound 92, N^3-(3-Ethynylphenyl)-7-phenylfuro[2,3-c]pyridine-2,3-diamine] | < 200 | – | < 200
COc1ccc(-c2nccc3c(Nc4ccc(F)c(Cl)c4)c(N)oc23)cc1 [Compound 101, N^3-(3-Chloro-4-fluorophenyl)-7-(4-methoxyphenyl)furo[2,3-c]pyridine-2,3-diamine] | < 200 | – | < 200
N#Cc1ccc2c(Nc3ccc(F)c(Cl)c3)c(N)oc2c1 [Compound 112, 2-Amino-3-((3-chloro-4-fluorophenyl)amino)benzofuran-6-carbonitrile] | < 200 | – | < 200
COCCNC(=O)c1ccc(-c2nccc3c(Nc4ccc(F)c(Cl)c4)c(N)oc23)cc1 [Compound 169, 4-(2-Amino-3-((3-chloro-4-fluorophenyl)amino)furo[2,3-c]pyridin-7-yl)-N-(2-methoxyethyl)benzamide] | < 200 | – | < 200
Nc1oc2c(-c3ccc(F)c(F)c3)nccc2c1Nc1ccc(F)c(Cl)c1 [Compound 170, N^3-(3-chloro-4-fluorophenyl)-7-(3,4-difluorophenyl)furo[2,3-c]pyridine-2,3-diamine] | < 200 | – | < 200
N#Cc1ccc(-c2cccc3c(Nc4ccc(F)c(Cl)c4)c(N)sc23)cc1 [Compound 212, 4-(2-Amino-3-((3-chloro-4-fluorophenyl)amino)benzo[b]thiophen-7-yl)benzonitrile] | < 200 | – | < 200

Source: patent publication US10294212B2 (CURADEV PHARMA PRIVATE LTD., priority 2013, dated 2019)
